Source: US20230373985A1 (Origenis Gmbh, priority 2020, published 2023)

Experiments:
[1] = molecular target: T1, G2019S human LRRK2, catalytic site (Homo sapiens, UniProt Q5S007, G2019S); assay: TR-FRET LanthaScreen Eu Kinase Binding Assay, LRRK2 G2019S; conditions: LRRK2(G2019); one range stated for wt and G2019; read-out: IC50, Activity Toward LRRK2(G2019)
T1 construct: G2019S human LRRK2, catalytic site; purchased ThermoFisher
Procedure: (§1) The basic protocol for TR-FRET LanthaScreen Eu Kinase Binding Assay inhibitor studies were performed as follows. LanthaScreen Kinase Binding Assays (ThermoFisher/USA) to evaluate inhibitors were performed by addition of 5 μL of test compound in corresponding DMSO dilutions/5 μl of kinase/antibody mixture, 5 μL of tracer into 384 well small volume plates. After incubation for 1 hour at room temperature, plates were read. Data analysis of emission ratios was according LanthaScreen Eu Kinase Binding Assay protocol.
(§2) Kinase and assay components were adjusted to final concentrations according to kit protocol. For LRRK2: 5 nM wt human LRRK2, catalytic site, or G2019S human LRRK2, catalytic site (ThermoFisher/USA), 2 nM Eu-Anti-GST Antibody, 10 nM Kinase Tracer 236 in 1× Kinase Buffer A. For NUAK1: 8 nM wt human NUAK1, full length (ThermoFisher/USA), 2 nM Eu-Anti-His Antibody, 5 nM Kinase Tracer 236 in 1× Kinase Buffer A.

[2] = molecular target: T2, wt human TYK2, catalytic site (Homo sapiens, UniProt P29597); assay: HTRF KinEASE assay, TYK2; format: biochemical; conditions: 1 μM ATP; read-out: IC50, Activity Toward TYK2
T2 construct: wt human TYK2, catalytic site; purchased SignalChem
T2 sequence (P29597 897-1176 limits assumed): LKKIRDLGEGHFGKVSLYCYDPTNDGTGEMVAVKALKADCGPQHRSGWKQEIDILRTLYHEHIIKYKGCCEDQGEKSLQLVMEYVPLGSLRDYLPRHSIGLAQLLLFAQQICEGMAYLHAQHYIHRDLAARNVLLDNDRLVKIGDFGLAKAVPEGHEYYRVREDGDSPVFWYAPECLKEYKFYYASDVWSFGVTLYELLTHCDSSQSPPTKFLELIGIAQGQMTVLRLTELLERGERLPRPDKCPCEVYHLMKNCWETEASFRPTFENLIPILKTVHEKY
How it was run: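 Kinase reaction run at room temperature for at least 30 min: 2 nM TYK2 with 1 μM ATP, or 1 nM JAK2 with 100 μM ATP, each with 1 μM biotin-TK substrate. Phosphorylation detected by HTRF (60 min antibody/XL665) and evaluated from emission ratios.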

[3] = molecular target: T3, wt human LRRK2, catalytic site (Homo sapiens, UniProt Q5S007); assay: TR-FRET LanthaScreen Eu Kinase Binding Assay, LRRK2 wt; conditions: one range stated for wt and G2019, read-out: IC50, Activity Toward LRRK2(Wt)
T3 construct: 5 nM wt human LRRK2, catalytic site; purchased ThermoFisher
Procedure: as §1, §2

[4] = molecular target: T4, wt human JAK1, catalytic site (Homo sapiens, UniProt P23458); assay: HTRF KinEASE assay, JAK1; format: biochemical; conditions: 2.5 μM ATP; read-out: IC50, Activity Toward JAK1
T4 construct: wt human JAK1, catalytic site; purchased ThermoFisher
How it was run: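 Compounds in DMSO dilution were mixed with kinase, biotin-TK substrate and ATP and reacted for ≥30 min at room temperature. Detection reagents (antibody, streptavidin-XL665) were read 60 min later as HTRF, with emission ratios analysed per KinEASE protocol.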

T1 sequence (Q5S007 970-2527 G2019S limits assumed): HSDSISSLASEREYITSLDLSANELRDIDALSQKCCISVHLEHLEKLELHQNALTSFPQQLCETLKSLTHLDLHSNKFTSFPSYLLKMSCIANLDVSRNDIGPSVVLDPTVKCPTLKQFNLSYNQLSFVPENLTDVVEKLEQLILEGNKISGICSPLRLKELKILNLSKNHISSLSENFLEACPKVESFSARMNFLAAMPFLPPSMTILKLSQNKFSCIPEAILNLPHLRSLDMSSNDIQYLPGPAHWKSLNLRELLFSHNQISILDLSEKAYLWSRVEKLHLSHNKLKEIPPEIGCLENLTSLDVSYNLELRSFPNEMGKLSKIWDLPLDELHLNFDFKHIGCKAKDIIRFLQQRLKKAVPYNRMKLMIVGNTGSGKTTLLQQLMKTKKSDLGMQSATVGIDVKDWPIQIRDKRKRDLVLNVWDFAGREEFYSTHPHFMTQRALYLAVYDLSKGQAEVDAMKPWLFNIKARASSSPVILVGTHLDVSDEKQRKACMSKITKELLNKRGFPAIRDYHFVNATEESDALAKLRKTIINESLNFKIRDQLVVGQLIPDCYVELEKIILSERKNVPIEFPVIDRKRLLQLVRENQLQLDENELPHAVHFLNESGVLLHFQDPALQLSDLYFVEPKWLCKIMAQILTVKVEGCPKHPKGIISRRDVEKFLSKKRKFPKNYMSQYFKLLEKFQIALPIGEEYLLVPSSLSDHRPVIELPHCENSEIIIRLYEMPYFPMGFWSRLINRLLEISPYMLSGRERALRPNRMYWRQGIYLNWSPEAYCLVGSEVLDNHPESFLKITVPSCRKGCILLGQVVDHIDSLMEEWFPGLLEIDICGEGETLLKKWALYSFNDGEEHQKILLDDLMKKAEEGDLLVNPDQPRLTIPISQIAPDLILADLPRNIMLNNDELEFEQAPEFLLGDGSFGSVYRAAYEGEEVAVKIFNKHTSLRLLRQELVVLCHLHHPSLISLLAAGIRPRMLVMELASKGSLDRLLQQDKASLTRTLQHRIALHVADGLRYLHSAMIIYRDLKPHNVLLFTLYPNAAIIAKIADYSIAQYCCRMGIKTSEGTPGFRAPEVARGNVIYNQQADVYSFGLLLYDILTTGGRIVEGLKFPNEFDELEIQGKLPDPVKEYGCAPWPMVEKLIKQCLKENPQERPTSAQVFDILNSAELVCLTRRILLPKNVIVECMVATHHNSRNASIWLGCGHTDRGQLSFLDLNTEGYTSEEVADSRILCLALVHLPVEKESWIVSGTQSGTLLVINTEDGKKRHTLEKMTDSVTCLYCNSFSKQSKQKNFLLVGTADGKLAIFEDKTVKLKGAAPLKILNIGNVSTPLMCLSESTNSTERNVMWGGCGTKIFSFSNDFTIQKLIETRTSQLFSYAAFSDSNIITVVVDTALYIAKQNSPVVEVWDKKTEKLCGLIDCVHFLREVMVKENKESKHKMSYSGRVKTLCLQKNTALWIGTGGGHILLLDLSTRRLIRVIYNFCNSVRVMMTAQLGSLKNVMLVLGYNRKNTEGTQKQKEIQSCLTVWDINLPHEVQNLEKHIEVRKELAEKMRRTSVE
T3 sequence (Q5S007 970-2527 limits assumed): as the sequence (Q5S007 970-2527 G2019S limits assumed) above, with S1050G counted along it
T4 sequence (P23458 875-1153 limits assumed): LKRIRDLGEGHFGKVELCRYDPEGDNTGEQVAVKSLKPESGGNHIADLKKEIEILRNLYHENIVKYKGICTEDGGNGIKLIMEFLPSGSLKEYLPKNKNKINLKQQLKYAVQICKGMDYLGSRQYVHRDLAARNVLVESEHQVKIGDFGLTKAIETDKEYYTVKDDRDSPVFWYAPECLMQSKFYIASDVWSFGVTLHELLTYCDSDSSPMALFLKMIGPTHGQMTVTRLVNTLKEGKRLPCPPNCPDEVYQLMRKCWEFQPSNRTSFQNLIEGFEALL

IC50 [1] [nM] | IC50 [2] [nM] | IC50 [3] [nM] | IC50 [4] [nM] | SMILES
100 to 1000 | 100 to 1000 | 100 to 1000 |  | Cc1ccnc(Nc2cn(-c3c(F)cccc3F)nc2C(N)=O)c1 [compound 10, 1-(2,6-difluorophenyl)-4-((4-methylpyridin-2-yl)amino)-1H-pyrazole-3-carboxamide]
100 to 1000 | 100 to 1000 | 100 to 1000 | 100 to 1000 | NC(=O)c1nn(-c2c(F)cccc2F)cc1Nc1nc2ccccc2[nH]1 [compound 11, 4-((1H-benzo[d]imidazol-2-yl)amino)-1-(2,6-difluorophenyl)-1H-pyrazole-3-carboxamide]
100 to 1000 | 100 to 1000 | 100 to 1000 | 100 to 1000 | NC(=O)c1nn(-c2c(F)cccc2F)cc1Nc1cccc(C(=O)N2CCOCC2)c1 [compound 18, 1-(2,6-difluorophenyl)-4-((3-(morpholine-4-carbonyl)phenyl)amino)-1H-pyrazole-3-carboxamide]
100 to 1000 | 100 to 1000 | 100 to 1000 |  | CC(C)(C)NC(=O)c1ccc(Nc2cn(-c3c(F)cccc3F)nc2C(N)=O)cn1 [compound 23, N-(tert-butyl)-5-((3-carbamoyl-1-(2,6-difluorophenyl)-1H-pyrazol-4-yl)amino)picolinamide]
100 to 1000 | 10 to 100 | 100 to 1000 | 10 to 100 | CC(C)(C)NC(=O)c1ccc(Nc2cn(-c3c(Cl)cccc3Cl)nc2C(N)=O)cc1 [compound 26, 4-((4-(tert-butylcarbamoyl)phenyl)amino)-1-(2,6-dichlorophenyl)-1H-pyrazole-3-carboxamide]
100 to 1000 | 10 to 100 | 100 to 1000 | 10 to 100 | CCNC(=O)c1ccc(Nc2cn(-c3c(Cl)cccc3Cl)nc2C(N)=O)cc1 [compound 34, 1-(2,6-dichlorophenyl)-4-((4-(ethylcarbamoyl)phenyl)amino)-1H-pyrazole-3-carboxamide]
100 to 1000 | 100 to 1000 | 100 to 1000 | 100 to 1000 | CC(C)(C)OC(=O)N1CCCC(NC(=O)c2ccc(Nc3cn(-c4c(F)cccc4Cl)nc3C(N)=O)cc2)C1 (centres unmarked) [compound 37, tert-butyl_3-(4-((3-carbamoyl-1-(2-chloro-6-fluorophenyl)-1H-pyrazol-4-yl)amino)benzamido)piperidine-1-carboxylate]
100 to 1000 | 10 to 100 | 100 to 1000 | 10 to 100 | CCNC(=O)c1ccc(Nc2cn(-c3c(F)cccc3Cl)nc2C(N)=O)cc1 [compound 40, 1-(2-chloro-6-fluorophenyl)-4-((4-(ethylcarbamoyl)phenyl)amino)-1H-pyrazole-3-carboxamide]
100 to 1000 | < 10 | 100 to 1000 | < 10 | CC(C)(C)C(=O)c1ccc(Nc2cn(-c3c(F)cccc3Cl)nc2C(N)=O)cc1 [compound 42, 1-(2-chloro-6-fluorophenyl)-4-((4-pivaloylphenyl)amino)-1H-pyrazole-3-carboxamide]
100 to 1000 | 100 to 1000 | 100 to 1000 |  | COc1ccccc1-c1ccc(Nc2cn(-c3c(Cl)cccc3Cl)nc2C(N)=O)cn1 [compound 344, 1-(2,6-dichlorophenyl)-4-((6-(2-methoxyphenyl)pyridin-3-yl)amino)-1H-pyrazole-3-carboxamide]
 | < 10 |  | 10 to 100 | N#Cc1cccc(Cl)c1-n1cc(Nc2ccc(C(=O)N3CC[C@@H](F)C3)cc2)c(C(N)=O)n1 [compound 459, 1-(2-Chloro-6-cyano-phenyl)-4-[4-((R)-3-fluoro-pyrrolidine-1-carbonyl)-phenylamino]-1H-pyrazole-3-carboxylic acid amide]
 | 100 to 1000 |  | 100 to 1000 | CC(F)(F)c1nnnn1-c1ccc(Nc2cn(-c3c(Cl)cccc3Cl)nc2C(N)=O)cn1 [compound 460, 1-(2,6-dichlorophenyl)-4-((6-(5-(1,1-difluoroethyl)-1H-tetrazol-1-yl)pyridin-3-yl)amino)-1H-pyrazole-3-carboxamide]
 | 10 to 100 |  | 10 to 100 | NC(=O)c1nn(-c2c(Cl)cccc2Cl)cc1Nc1cnn(CC(=O)N2CCOCC2)c1 [compound 461, 1-(2,6-dichlorophenyl)-4-((1-(2-morpholino-2-oxoethyl)-1H-pyrazol-4-yl)amino)-1H-pyrazole-3-carboxamide]
 | 100 to 1000 |  | 10 to 100 | COC(=O)Cn1cc(Nc2cn(-c3c(Cl)cccc3Cl)nc2C(N)=O)cn1 [compound 462, methyl_2-(4-((3-carbamoyl-1-(2,6-dichlorophenyl)-1H-pyrazol-4-yl)amino)-1H-pyrazol-1-yl)acetate]
 | < 10 |  | 10 to 100 | NC(=O)c1nn(-c2c(Cl)cccc2Cl)cc1Nc1ccc(C(=O)N2CCS(=O)(=O)CC2)nc1 [compound 463, 1-(2,6-dichlorophenyl)-4-((6-(1,1-dioxidothiomorpholine-4-carbonyl)pyridin-3-yl)amino)-1H-pyrazole-3-carboxamide]
 | 10 to 100 |  | 100 to 1000 | CC1(C)CN(C(=O)c2ccc(Nc3cn(-c4c(Cl)cccc4Cl)nc3C(N)=O)cn2)C1 [compound 464, 1-(2,6-dichlorophenyl)-4-((6-(3,3-dimethylazetidine-1-carbonyl)pyridin-3-yl)amino)-1H-pyrazole-3-carboxamide]
 | < 10 |  | < 10 | NC(=O)c1nn(-c2c(Cl)cccc2Cl)cc1Nc1ccc(C(=O)N2CCSCC2)cc1 [compound 467, 1-(2,6-dichlorophenyl)-4-((4-(thiomorpholine-4-carbonyl)phenyl)amino)-1H-pyrazole-3-carboxamide]
 | < 10 |  | < 10 | N=S1(=O)CCN(C(=O)c2ccc(Nc3cn(-c4c(Cl)cccc4Cl)nc3C(N)=O)cc2)CC1 [compound 468, 1-(2,6-dichlorophenyl)-4-((4-(1-imino-1-oxidothiomorpholine-4-carbonyl)phenyl)amino)-1H-pyrazole-3-carboxamide]
 | 10 to 100 |  | 10 to 100 | NC(=O)c1nn(-c2c(Cl)cccc2Cl)cc1Nc1cnn(CC(=O)N2CCS(=O)(=O)CC2)c1 [compound 469, 1-(2,6-dichlorophenyl)-4-((1-(2-(1,1-dioxidothiomorpholino)-2-oxoethyl)-1H-pyrazol-4-yl)amino)-1H-pyrazole-3-carboxamide]
 | 100 to 1000 |  | 100 to 1000 | Cc1cc2nnc(-c3ccc(Nc4cn(-c5c(Cl)cccc5Cl)nc4C(N)=O)cn3)n2c(C)n1 [compound 470, 1-(2,6-dichlorophenyl)-4-((6-(5,7-dimethyl-[1,2,4]triazolo[4,3-c]pyrimidin-3-yl)pyridin-3-yl)amino)-1H-pyrazole-3-carboxamide]
 | 100 to 1000 |  | 100 to 1000 | NC(=O)c1nn(-c2c(Cl)cccc2Cl)cc1Nc1ccc(-c2nnc3cccc(C(F)(F)F)n23)nc1 [compound 471, 1-(2,6-dichlorophenyl)-4-((6-(5-(trifluoromethyl)-[1,2,4]triazolo[4,3-a]pyridin-3-yl)pyridin-3-yl)amino)-1H-pyrazole-3-carboxamide]
 | 10 to 100 |  | 10 to 100 | Cc1cccc2ncc(-c3ccc(Nc4cn(-c5c(Cl)cccc5Cl)nc4C(N)=O)cn3)n12 [compound 473, 1-(2,6-dichlorophenyl)-4-((6-(5-methylimidazo[1,2-a]pyridin-3-yl)pyridin-3-yl)amino)-1H-pyrazole-3-carboxamide]
 | 100 to 1000 |  | 100 to 1000 | Cc1csc2nnc(-c3ccc(Nc4cn(-c5c(Cl)cccc5Cl)nc4C(N)=O)cn3)n12 [compound 475, 1-(2,6-dichlorophenyl)-4-((6-(5-methylthiazolo[2,3-c][1,2,4]triazol-3-yl)pyridin-3-yl)amino)-1H-pyrazole-3-carboxamide]
 | 100 to 1000 |  | 10 to 100 | N#Cc1cccc2nnc(-c3ccc(Nc4cn(-c5c(Cl)cccc5Cl)nc4C(N)=O)cn3)n12 [compound 476, 4-((6-(5-cyano-[1,2,4]triazolo[4,3-a]pyridin-3-yl)pyridin-3-yl)amino)-1-(2,6-dichlorophenyl)-1H-pyrazole-3-carboxamide]
